Data reported in patent publication US7291740B2, “5-[4-[2-(N-methyl-N-(2-pyridyl)amino)ethoxy]benzyl]thiazolidine-2,4-dione Mesylate salt” (SmithKline Beecham p.l.c., priority 2000, dated 2007).
Read-outs that look alike come from different tables or passages of the source.

Assay: Solubility of the Mesylate in water (aliquot addition until the powder dissolved)
Type: physicochemical
From the text: The visual solubility was confirmed by an HPLC assay of a saturated solution.

SMILES | Solubility (water, visual dissolution (Form IV confirmed by HPLC assay of a saturated solution)) [mg/mL] | Solubility [mg/mL]
CN(CCOc1ccc(CC2SC(=O)NC2=O)cc1)c1ccccn1.CS(=O)(=O)O (stereo not shown) [Example 1, 5-[4-[2-(N-methyl-N-(2-pyridyl)amino)ethoxy]benzyl]thiazolidine-2,4-dione methanesulfonate Form I] | > 100 | 
CN(CCOc1ccc(CC2SC(=O)NC2=O)cc1)c1ccccn1.CS(=O)(=O)O (stereo not shown) [Example 11, 5-[4-[2-(N-methyl-N-(2-pyridyl)amino)ethoxy]benzyl]thiazolidine-2,4-dione methanesulfonate Form IV] |  | > 100
CN(CCOc1ccc(CC2SC(=O)NC2=O)cc1)c1ccccn1.CS(=O)(=O)O (stereo not shown) [Example 4, 5-[4-[2-(N-methyl-N-(2-pyridyl)amino)ethoxy]benzyl]thiazolidine-2,4-dione methanesulfonate Form III] |  | > 100
CN(CCOc1ccc(CC2SC(=O)NC2=O)cc1)c1ccccn1.CS(=O)(=O)O (stereo not shown) [Example 3, 5-[4-[2-(N-methyl-N-(2-pyridyl)amino)ethoxy]benzyl]thiazolidine-2,4-dione methanesulfonate Form II] |  | > 100
